The values below are quoted from earlier work in US20090156457A1, “METHODS AND MEANS FOR SCREENING FOR RHOMBOID ACTIVITY” (MEDICAL RESEARCH COUNCIL, priority 2004, published 2009).

The test system of the series is Rhomboid.

Consider `O=c1oc(Cl)c(Cl)c2ccccc12` [3,4-DCI], for which the Rhomboid activity entry is “inhibit Rhomboid activity”.
As for `Cc1ccc(S(=O)(=O)N[C@@H](Cc2ccccc2)C(=O)CCl)cc1` [TPCK], the Rhomboid activity entry is given as “inhibit Rhomboid activity”.
